Results on two compounds are retold here after patent US20100197635A1, “TREATMENT OF TARDIVE DYSKINESIA WITH PYRIDOXAL 5'-PHOSPHATE” (Medicure International Inc., priority 2007, published 2010).

Series [1] in a line: Phase I single ascending dose study, safety and tolerance of P5P enteric-coated tablet. It counts as in vivo, healthy subjects. The procedure:
(§1) A Phase I, single center, single-dose, open-label, sequential ascending dose study to evaluate the safety and tolerance of pyridoxal-5′-phosphate, in an enteric-coated tablet, following a single dose of 250 mg, 750 mg, 1000 mg, and 4000 mg in healthy subjects under fasting conditions was conducted.
(§2) A total of 32 healthy, adult subjects signed the study-specific Informed Consent Form and were confined in the clinical study unit; of these subjects, 24 (6 subjects in each dose level; 3 males and 3 females) were dosed and were enrolled in the study; all of these enrolled subjects completed the study. Subjects were confined to the SFBC Anapharm Clinical Research Facility from at least 12 hours prior to drug administration until after the 24.0-hour post-dose blood draw.
Subjects enrolled in this study were members of the community at large. […] All participating subjects were judged eligible for the study when assessed against the inclusion and exclusion criteria. […]

The subject of the next series is P2 purinoceptors. The conditions noted are these: cited from earlier work.
In series [2] the test system is Tardive Dyskinesia. The experiment in a line: Double blind, placebo controlled crossover study of P5P in tardive dyskinesia (Extrapyramidal Symptom Rating Scale). Format: in vivo, patients. The procedure:
A double blind, placebo controlled crossover study is conducted among patients with TD induced by the use of a neuroleptic medication. Patients are divided into 5 groups: control, Vitamin B6 treatment (400 mg), low dose of P5P (100 mg), medium dose of P5P (250 mg), and high dose of P5P (750 mg). All dosages are administered orally. Treatments are given daily.

The nature of series [3]: Phase I single ascending dose study, pharmacokinetics of P5P enteric-coated tablet. Format: in vivo, healthy subjects. The conditions noted are these: both sexes, human, fasting; for Cmax / Tmax / half-life: plasma, baseline-corrected; for AUC(0-t): baseline-corrected plasma P5P. On the procedure: as §1, §2
Subjects were administered a single oral dose of study medication, as a 1×250 mg (Cohort 1), 3×250 mg (Cohort 2; total dose of 750 mg), 4×250 mg (Cohort 3; total dose of 1000 mg), or 16×250 mg (Cohort 4; total dose of 4000 mg) enteric-coated tablets.
After a supervised overnight fast of at least 10 hours, subjects were administered the medication as a single oral dose of 1, 3, 4, or 16 enteric-coated tablets containing 250 mg of P5P (total dose of 250mg, 750 mg, 1000 mg, or 4000 mg), with 300 mL of water. Subjects were dosed as specified in the protocol, and subsequently fasted for at least 4 hours.
The pharmacokinetic parameters to determine bioavailability for this study were: area under the concentration-time curve from time zero to time of last non-zero concentration (AUC0-t), maximum observed concentration (Cmax), time of observed Cmax (Tmax) and elimination half-life (equivalent to t1/2).

The test system of series [4] is Tardive Dyskinesia. As to conditions: 100-400 mg vitamin B6 per day, TD induced by schizophrenia medication; cited from earlier work.
The conditions of series [5]: unlikely to pose risks of adverse health effects in healthy people; cited from earlier work.

Read-outs that look alike come from different tables or passages of the source.

In general, Cmax refers to the maximum level reached in the sampled fluid or tissue. The term Tmax denotes the time from dosing to the highest level. One may read the half-life as the time needed for the level to fall by half in the phase considered. High values mean slow decline, low ones rapid decline. The AUC(0-t) is exposure summed from dosing to a finite time, without extrapolation to infinity. Higher therefore signals more exposure.

Consider `Cc1ncc(COP(=O)(O)O)c(C=O)c1O` [P5P, 3-hydroxy-2-methyl-5-[(phosphonooxy)methyl]-4-pyridine-carboxaldehyde], for which the tolerability entry in series [1] (dosages up to 4000 mg) was “well tolerated”. Further, in series [1] (single oral doses 250, 750, 1000, 4000 mg), the “side effects or evidence of toxicity” value was “none of the patients presented any significant side effects or evidence of toxicity”. In addition, in the series with P2 purinoceptors, the “ATP induced calcium ion influx into cells” value is on record as “inhibits”. Moreover, the “Extrapyramidal Symptom Rating Scale scores, medium or high dose compared to low dose group” value in the series on Tardive Dyskinesia [2] (P5P 250 mg or 750 mg vs 100 mg, orally daily) is “significantly improved scores”. Further, in the series on Tardive Dyskinesia [2] (P5P 250 mg vs 750 mg, orally daily), the “Extrapyramidal Symptom Rating Scale scores, medium dose compared to high dose” value was “do not exhibit significantly different scores”. Also, in the series on Tardive Dyskinesia [2] (P5P 100, 250 or 750 mg orally daily, compared to control or vitamin B6 (400 mg) groups), the “scores on the subscales of the Extrapyramidal Symptom Rating Scale (parkinsonism and dyskinetic movement scales)” value was “improved scores”. In addition, the highest concentration (Cmax) turned out to be 300 ± 200 ng/mL in series [3] (single oral dose 250 mg), 3900 ± 5400 ng/mL in series [3] (single oral dose 750 mg), 1500 ± 2300 ng/mL in series [3] (single oral dose 1000 mg) and 1700 ± 2700 ng/mL in series [3] (single oral dose 4000 mg). In addition, the Tmax in series [3] (single oral dose 250 mg) worked out at 3.2 ± 1.3 h; in series [3] (single oral dose 750 mg), 2.8 ± 0.9 h; in series [3] (single oral dose 1000 mg), 2.9 ± 1.4 h; in series [3] (single oral dose 4000 mg), 4.7 ± 3.5 h. Also, the half-life in series [3] (single oral dose 250 mg) was 53.8 ± 41.9 h; in series [3] (single oral dose 750 mg) it was 27.9 ± 19.5 h; in series [3] (single oral dose 1000 mg) it was 36.2 ± 30.6 h; in series [3] (single oral dose 4000 mg) it was 16.5 ± 16.5 h. In addition, the exposure AUC(0-t) in series [3] (single oral dose 250 mg) is 2600 ± 1300 ng·h/mL; in series [3] (single oral dose 750 mg) it was 12800 ± 15400 ng·h/mL; in series [3] (single oral dose 1000 mg) it was 5900 ± 7700 ng·h/mL; in series [3] (single oral dose 4000 mg), 6900 ± 7400 ng·h/mL.
For the compound `Cc1ncc(CO)c(CO)c1O` [vitamin B6, pyridoxine], in the series on Tardive Dyskinesia [4], the “scores on the subscales of the Extrapyramidal Symptom Rating Scale (parkinsonism and dyskinetic movement scales)” value is listed as “improved scores”. For the same compound, in series [5], the “Tolerable Upper Intake Level” value is 100 mg.
